Test results: patent US12264134B2 (Merck Sharp & Dohme LLC, priority 2018, dated 2025)

Biological target: IDO1 (Homo sapiens, UniProt P14902)
Experiment: IDO1 Cellular Assay in HeLa Cells Stimulated with IFNγ
Format: cell-based
Details: read-out: HeLa Cell Potency, IC50

Sequence of IDO1 (P14902 whole entry): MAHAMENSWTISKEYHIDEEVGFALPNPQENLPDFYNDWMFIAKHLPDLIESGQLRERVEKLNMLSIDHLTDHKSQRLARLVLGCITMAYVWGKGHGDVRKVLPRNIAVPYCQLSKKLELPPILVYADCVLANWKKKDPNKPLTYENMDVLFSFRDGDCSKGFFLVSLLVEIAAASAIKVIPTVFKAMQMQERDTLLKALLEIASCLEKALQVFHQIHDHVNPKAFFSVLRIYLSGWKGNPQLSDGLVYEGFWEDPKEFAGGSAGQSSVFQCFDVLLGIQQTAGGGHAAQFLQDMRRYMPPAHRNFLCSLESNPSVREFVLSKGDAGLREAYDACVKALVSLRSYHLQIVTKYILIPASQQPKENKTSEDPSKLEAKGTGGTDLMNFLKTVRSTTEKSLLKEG

Structure (SMILES)	IC50
Cc1cccc(N2CCN(C(=O)Cn3nc(C(=O)N4CC[C@@H](O)[C@@H](F)C4)c4c3C(O)CC4)CC2)c1C (mixture of isomers) [Example 421, 1-(4-(2,3-dimethylphenyl)piperazin-1-yl)-2-(3-((3S,4R)-3-fluoro-4-hydroxypiperidine-1-carbonyl)-6-hydroxy-5,6-dihydrocyclopenta[c]pyrazol-1(4H)-yl)ethanone]	692 nM
Cc1cccc(N2CCN(C(=O)Cn3nc(C(=O)N4CCC(OCCO)CC4)c4c3CCC4C(F)F)CC2)c1C (single isomer, unassigned) [Example 13, 2-[4-(difluoromethyl)-3-[4-(2-hydroxyethoxy)piperidine-1-carbonyl]-5,6-dihydro-4H-cyclopenta[c]pyrazol-1-yl]-1-[4-(2,3-dimethylphenyl)piperazin-1-yl]ethanone]	31 nM
Cc1cccc(N2CCN(C(=O)Cn3nc(C(=O)N4CCC5(CC4)NC(=O)NC5=O)c4c3CCC4)CC2)c1C [Example 133, 8-(1-{2-[4-(2,3-dimethylphenyl)piperazin-1-yl]-2-oxoethyl}-1,4,5,6-tetrahydrocyclopenta[c]pyrazole-3-carbonyl)-1,3,8-triazaspiro[4.5]decane-2,4-dione]	141 nM
Cc1cccc(N2CCN(C(=O)Cn3nc(C(=O)N4CCC(O)CC4)c4c3C[C@H]3C[C@@H]43)C(C(F)F)C2)c1C (stereo partly drawn) [Example 385, 1-(2-(difluoromethyl)-4-(2,3-dimethylphenyl)piperazin-1-yl)-2-((3bR,4aR)-3-(4-hydroxypiperidine-1-carbonyl)-3b,4,4a,5-tetrahydro-1H-cyclopropa[3,4]cyclopenta[1,2-c]pyrazol-1-yl)ethanone]	34.9 nM
Cc1cccc(N2CCN(C(=O)Cn3nc(C(=O)N4CC5(CNC5)C4)c4c3C[C@H]3C[C@@H]43)CC2)c1C [Example 232, 2-[(3bR,4aR)-3-(2,6-diazaspiro[3.3]heptane-2-carbonyl)-3b,4,4a,5-tetrahydro-1H-cyclopropa[3,4]cyclopenta[1,2-c]pyrazol-1-yl]-1-[4-(2,3-dimethylphenyl)piperazin-1-yl]ethan-1-one]	61.4 nM
O=C(Cn1nc(C(=O)N2CC[C@H](O)[C@H](F)C2)c2c1CCC2)N1CCN(C2CCCc3ccccc32)CC1 (stereo partly drawn) [Example 425, 2-(3-((3R,4S)-3-fluoro-4-hydroxypiperidine-1-carbonyl)-5,6-dihydrocyclopenta[c]pyrazol-1(4H)-yl)-1-(4-(1,2,3,4-tetrahydronaphthalen-1-yl)piperazin-1-yl)ethanone]	565 nM
O=C(Cn1nc(C(=O)N2CCC(O)CC2)c2c1CCC2)N1CCN(C2CCc3ccccc32)CC1 (single isomer, unassigned) [Example 437, 1-(4-(2,3-dihydro-1H-inden-1-yl)piperazin-1-yl)-2-(3-(4-hydroxypiperidine-1-carbonyl)-5,6-dihydrocyclopenta[c]pyrazol-1(4H)-yl)ethanone]	810 nM
Cc1cccc(N2CCN(C(=O)Cn3nc(C(=O)N4CCC(N)CC4)c4c3CCC4)CC2)c1C [Example 200, 2-[3-(4-aminopiperidine-1-carbonyl)-5,6-dihydrocyclopenta[c]pyrazol-1(4H)-yl]-1-[4-(2,3-dimethylphenyl)piperazin-1-yl]ethan-1-one]	26.6 nM
Cc1cccc(N2CCN(C(=O)Cn3nc(C(=O)N4C[C@H](O)[C@@H](O)C4)c4c3CCC4)CC2)c1C [Example 309, 2-{3-[(3S,4S)-3,4-dihydroxypyrrolidine-1-carbonyl]-5,6-dihydrocyclopenta[c]pyrazol-1(4H)-yl}-1-[4-(2,3-dimethylphenyl)piperazin-1-yl]ethan-1-one]	410 nM
O=C(Cn1nc(C(=O)N2CCC(O)CC2)c2c1CCC2)N1CCN(C2CCCc3ccccc32)CC1 (single isomer, unassigned) [Example 429]	183 nM
COc1ccc(N2CCN(C(=O)Cn3nc(C(=O)N4C[C@@H](C)O[C@@H](C)C4)c4c3CCC4)CC2)c(C)c1 [Example 38, 2-{3-[(2R,6S)-2,6-dimethylmorpholine-4-carbonyl]-5,6-dihydrocyclopenta[c]pyrazol-1(4H)-yl}-1-[4-(4-methoxy-2-methylphenyl)piperazin-1-yl]ethan-1-one]	124 nM
Cc1cccc(N2CCN(C(=O)Cn3nc(C(=O)N4CCC5(CC4)CNC(=O)N5)c4c3CCC4)CC2)c1C [Example 184, 8-(1-{2-[4-(2,3-dimethylphenyl)piperazin-1-yl]-2-oxoethyl}-1,4,5,6-tetrahydrocyclopenta[c]pyrazole-3-carbonyl)-1,3,8-triazaspiro[4.5]decan-2-one]	80.2 nM
Cc1cccc(N2CCN(C(=O)Cn3nc(C(=O)N4CC[C@H](O)[C@H](F)C4)c4c3C(F)(F)CCC4)CC2)c1C [Example 20, 2-(7,7-Difluoro-3-((3R,4S)-3-fluoro-4-hydroxypiperidine-1-carbonyl)-4,5,6,7-tetrahydro-1H-indazol-1-yl)-1-(4-(2,3-dimethylphenyl)piperazin-1-yl)ethanone]	381 nM
Cc1cccc(N2CCN(C(=O)Cn3nc(C(=O)N4CCCC(O)CC4)c4c3CCC4)CC2)c1C (stereo not drawn) [Example 118]	13.9 nM
Cc1cccc(N2CCN(C(=O)Cn3nc(C(=O)N4CCC(CN)CC4)c4c3CCC4)CC2)c1C [Example 180, 2-{3-[4-(aminomethyl)piperidine-1-carbonyl]-5,6-dihydrocyclopenta[c]pyrazol-1(4H)-yl}-1-[4-(2,3-dimethylphenyl)piperazin-1-yl]ethan-1-one]	11.6 nM
Cc1cccc(N2CCN(C(=O)Cn3nc(C(=O)N4CCC(O)CC4(C)C)c4c3CCC4)CC2)c1C (stereo not drawn) [Example 119, 1-[4-(2,3-dimethylphenyl)piperazin-1-yl]-2-[3-(4-hydroxy-2,2-dimethylpiperidine-1-carbonyl)-5,6-dihydrocyclopenta[c]pyrazol-1(4H)-yl]ethan-1-one]	33.3 nM
Cc1cccc(N2CCN(C(=O)Cn3nc(C(=O)N4CC5(CC(O)C5)C4)c4c3CCC4)CC2)c1C [Example 305, 1-[4-(2,3-dimethylphenyl)piperazin-1-yl]-2-[3-(6-hydroxy-2-azaspiro[3.3]heptane-2-carbonyl)-5,6-dihydrocyclopenta[c]pyrazol-1(4H)-yl]ethan-1-one]	48 nM
Cc1cccc(N2CCN(C(=O)Cn3nc(C(=O)N4CCC5(CC4)C[C@H](C)OC5=O)c4c3CCC4)CC2)c1C [Example 135, (3S)-8-(1-{2-[4-(2,3-dimethylphenyl)piperazin-1-yl]-2-oxoethyl}-1,4,5,6-tetrahydrocyclopenta[c]pyrazole-3-carbonyl)-3-methyl-2-oxa-8-azaspiro[4.5]decan-1-one]	38.5 nM

Stronger by IC50, values ahead:

IC50	Structure (SMILES)
1.05 nM	Cc1cccc(N2CCN(C(=O)Cn3nc(C(=O)N4CCC(NC(=O)C5CC5)CC4)c4c3C[C@H]3C[C@@H]43)CC2)c1C [Example 257, N-{1-[(3bR,4aR)-1-{2-[4-(2,3-dimethylphenyl)piperazin-1-yl]-2-oxoethyl}-3b,4,4a,5-tetrahydro-1H-cyclopropa[3,4]cyclopenta[1,2-c]pyrazole-3-carbonyl]piperidin-4-yl}cyclopropanecarboxamide]
3.32 nM	Cc1cccc(N2CCN(C(=O)Cn3nc(C(=O)N4CCC(O)(CO)CC4)c4c3CCCC4)CC2)c1C [Example 455, 1-(4-(2,3-dimethylphenyl)piperazin-1-yl)-2-(3-(4-hydroxy-4-(hydroxymethyl)piperidine-1-carbonyl)-4,5,6,7-tetrahydro-1H-indazol-1-yl)ethanone]
6.18 nM	Cc1cccc(N2CCN(C(=O)Cn3nc(C(=O)N4CCN(C)[C@@H](C)C4)c4c3CCC4)CC2)c1C [Example 166, 1-[4-(2,3-dimethylphenyl)piperazin-1-yl]-2-{3-[(3S)-3,4-dimethylpiperazine-1-carbonyl]-5,6-dihydrocyclopenta[c]pyrazol-1(4H)-yl}ethan-1-one]
1.87 nM	Cc1cccc(N2CCN(C(=O)Cn3nc(C(=O)N4CCC(F)(CO)CC4)c4c3CCCC4)CC2)c1C [Example 467, 1-(4-(2,3-dimethylphenyl)piperazin-1-yl)-2-(3-(4-fluoro-4-(hydroxymethyl)piperidine-1-carbonyl)-4,5,6,7-tetrahydro-1H-indazol-1-yl)ethanone]
3.58 nM	Cc1cccc(N2CCN(C(=O)Cn3nc(C(=O)N4CCN(C(=O)CO)C[C@H]4C)c4c3CCC4)CC2)c1C [Example 402, (R)-1-(4-(2,3-dimethylphenyl)piperazin-1-yl)-2-(3-(4-(2-hydroxyacetyl)-2-methylpiperazine-1-carbonyl)-5,6-dihydrocyclopenta[c]pyrazol-1(4H)-yl)ethanone]
6.23 nM	Cc1cccc(N2CCN(C(=O)Cn3nc(C(=O)N4CCC(NS(N)(=O)=O)CC4)c4c3C[C@H]3C[C@@H]43)CC2)c1C [Example 222, N-{1-[(3bR,4aR)-1-{2-[4-(2,3-dimethylphenyl)piperazin-1-yl]-2-oxoethyl}-3b,4,4a,5-tetrahydro-1H-cyclopropa[3,4]cyclopenta[1,2-c]pyrazole-3-carbonyl]piperidin-4-yl}sulfuric diamide]
0.7 nM	Cc1cccc(N2CCN(C(=O)Cn3nc(C(=O)N4CCC(C)(CO)CC4)c4c3C[C@H]3C[C@@H]43)CC2)c1C [Example 248, 1-[4-(2,3-dimethylphenyl)piperazin-1-yl]-2-{(3aR,4aR)-3-[4-(hydroxymethyl)-4-methylpiperidine-1-carbonyl]-3b,4,4a,5-tetrahydro-1H-cyclopropa[3,4]cyclopenta[1,2-c]pyrazol-1-yl}ethan-1-one]
2.16 nM	Cc1c(N2CCN(C(=O)Cn3nc(C(=O)N4CCO[C@H](CO)C4)c4c3C[C@H]3C[C@@H]43)CC2)cccc1C(F)(F)F [Example 342, 2-((3bR,4aR)-3-((S)-2-(hydroxymethyl)morpholine-4-carbonyl)-3b,4,4a,5-tetrahydro-1H-cyclopropa[3,4]cyclopenta[1,2-c]pyrazol-1-yl)-1-(4-(2-methyl-3-(trifluoromethyl)phenyl)piperazin-1-yl)ethanone]
3.15 nM	CC(=O)NC1CCN(C(=O)c2nn(CC(=O)N3CCN(c4cccc(Cl)c4C)CC3)c3c2CC(F)CC3)CC1 (stereo not drawn) [Example 377, N-(1-(1-(2-(4-(3-chloro-2-methylphenyl)piperazin-1-yl)-2-oxoethyl)-5-fluoro-4,5,6,7-tetrahydro-1H-indazol-3-carbonyl)piperidin-4-yl)acetamide]
